Test results reported in patent US10500166B2, “Methods for the treatment of erectile dysfunction using fispemifene” (QUATRX PHARMACEUTICALS, priority 2007, dated 2019).

Experiments:
Assay type in all cases: in vivo, human
serum testosterone = test: Phase I repeated dose study 101-50202: serum total testosterone; conditions: for increase of the mean serum total testosterone compared to baseline: 28 days, healthy men
Description: (§1) Fispemifene has been studied in two phase I studies in humans—in a single dose and a repeated dose study. Effect of fispemifene on hormone levels was one main focus of the repeated dose study. The phase I repeated dose study (number 101-50202) was a randomized, double-blind, placebo-controlled 28-day dose-escalation study performed in 31 healthy, elderly men, aged 50-68 years. The main objective of the study was to investigate the tolerability, safety and pharmacokinetics of fispemifene after repeated oral doses, but the study focused also on the effects of fispemifene on serum free and total testosterone, estradiol, and other relevant hormones. The fispemifene doses 10, 30, 100 and 300 mg per day and placebo were administered once every morning as capsules containing 10 mg or 100 mg of fispemifene, or placebo.
(§2) The variables for safety and tolerability were adverse events, vital signs, 12-lead ECG, clinical laboratory evaluations, physical examination, ultrasound examinations (mammary glands) and inhibin B. For pharmacokinetics, the concentrations of fispemifene and its metabolite(s) were to be evaluated. For pharmacodynamics, serum concentrations of FSH, LH, estradiol, testosterone, SHBG, prolactin, aldosterone, cortisol and TSH before and during treatment were measured and compared with the concentrations in the placebo-group.

estradiol = test: Phase I repeated dose study 101-50202: serum estradiol
Description: as §1, §2

[1] = Phase I repeated dose study 101-50202: safety and tolerability
Description: A suitable dosage is expected to be in a range of about 5 mg/day to about 1500 mg/day. In a phase I repeated dose study, twenty-three healthy men aged 50 to 70 years received daily 10 mg, 30 mg 100 mg and 300 mg dosages of fispemifene for 28 days. […] All other adverse events were single cases. Fispemifene at the 100 and 300 mg/day dose levels increased serum total testosterone levels 32% and 75% respectively. Thus, a preferred dosage range of fispemifene to treat ED is expected to be 10 to 1000 mg/day.
as §1, §2

In the case of `OCCOCCOc1ccc(/C(=C(/CCCl)c2ccccc2)c2ccccc2)cc1` [Fispemifene, (Z)-2-{2-[4-(4-Chloro-1,2-diphenylbut-1-enyl)phenoxy]ethoxy}ethanol], the “Serum total testosterone, Mean” value (serum testosterone; 10 mg/day, Baseline) is reported as 19.33 nmol/L, the “Serum total testosterone, Mean” value (serum testosterone; 10 mg/day, Day 8) is reported as 19.83 nmol/L and the “Serum total testosterone, Mean” value (serum testosterone; 10 mg/day, Day 15) is reported as 20.50 nmol/L. For the same compound, the “Serum total testosterone, Mean” value (serum testosterone; 10 mg/day, Day 22) was 22.00 nmol/L, the “Serum total testosterone, Mean” value (serum testosterone; 10 mg/day, Day 28) was 17.40 nmol/L and the “Serum total testosterone, Mean” value (serum testosterone; 30 mg/day, Baseline) was 15.00 nmol/L. For the same compound, the “Serum total testosterone, Mean” value (serum testosterone; 30 mg/day, Day 15) was 15.00 nmol/L, the “Serum total testosterone, Mean” value (serum testosterone; 30 mg/day, Day 22) was 15.80 nmol/L and the “Serum total testosterone, Mean” value (serum testosterone; 30 mg/day, Day 28) was 14.80 nmol/L. For the same compound, the “testosterone compared with placebo” value (serum testosterone; 100 mg and 300 mg) was “increased statistically significantly”, the “subjects in whom increase in testosterone serum concentration was seen” value (serum testosterone; 100 mg or 300 mg, 28-day treatment period) was “all the subjects” and the “increase of the mean serum total testosterone compared to baseline” value (shortened to “increase … to baseline”) (serum testosterone; 100 mg/day) was 32%. The “increase … to baseline” value (serum testosterone; 100 mg/day, listed as fispemifene) was “about 32%”, the “Serum total testosterone, Mean” value (serum testosterone; 100 mg/day, Baseline) was 14.27 nmol/L and the “Serum total testosterone, Mean” value (serum testosterone; 100 mg/day, Day 8) was 18.67 nmol/L. For the same compound, the “Serum total testosterone, Mean” value (serum testosterone; 100 mg/day, Day 15) was 19.00 nmol/L, the “Serum total testosterone, Mean” value (serum testosterone; 100 mg/day, Day 22) was 17.83 nmol/L and the “Serum total testosterone, Mean” value (serum testosterone; 100 mg/day, Day 28) was 18.83 nmol/L. The “men with serum testosterone level above the upper limit of normal range (33 nmol/L) during treatment” value (serum testosterone; 300 mg/day (highest dose)) was “Two out of six”, the “increase … to baseline” value (serum testosterone; 300 mg/day) was 75% and the “increase … to baseline” value (serum testosterone; 300 mg/day, listed as fispemifene) was “about 75%”. The “Serum total testosterone, Mean” value (serum testosterone; 300 mg/day, Baseline) was 15.67 nmol/L, the “Serum total testosterone, Mean” value (serum testosterone; 300 mg/day, Day 8) was 23.17 nmol/L and the “Serum total testosterone, Mean” value (serum testosterone; 300 mg/day, Day 15) was 27.00 nmol/L. The “Serum total testosterone, Mean” value (serum testosterone; 300 mg/day, Day 22) was 27.83 nmol/L, the “Serum total testosterone, Mean” value (serum testosterone; 300 mg/day, Day 28) was 27.50 nmol/L and the “effect on serum concentration of testosterone” value (serum testosterone; during the 28 days of treatment) was “increased”. For the same compound, the “effect on serum testosterone concentration” value (serum testosterone; healthy older men, within 28 days from the start of treatment) was “clinically and statistically significant and dose dependent increase”, the “Serum estradiol, Mean” value (estradiol; 10 mg/day, Baseline) was 106.2 pmol/L and the “Serum estradiol, Mean” value (estradiol; 10 mg/day, Day 8) was 94.7 pmol/L. For the same compound, the “Serum estradiol, Mean” value (estradiol; 10 mg/day, Day 15) was 81.7 pmol/L, the “Serum estradiol, Mean” value (estradiol; 10 mg/day, Day 22) was 116.6 pmol/L and the “Serum estradiol, Mean” value (estradiol; 10 mg/day, Day 28) was 75.0 pmol/L. The “Serum estradiol, Mean” value (estradiol; 30 mg/day, Baseline) was 97.8 pmol/L, the “Serum estradiol, Mean” value (estradiol; 30 mg/day, Day 8) was 105.6 pmol/L and the “Serum estradiol, Mean” value (estradiol; 30 mg/day, Day 15) was 102.4 pmol/L. The “Serum estradiol, Mean” value (estradiol; 30 mg/day, Day 22) was 99.6 pmol/L, the “Serum estradiol, Mean” value (estradiol; 30 mg/day, Day 28) was 87.0 pmol/L and the “Serum estradiol, Mean” value (estradiol; 100 mg/day, Baseline) was 84.3 pmol/L. For the same compound, the “Serum estradiol, Mean” value (estradiol; 100 mg/day, Day 8) was 108.3 pmol/L, the “Serum estradiol, Mean” value (estradiol; 100 mg/day, Day 15) was 111.5 pmol/L and the “Serum estradiol, Mean” value (estradiol; 100 mg/day, Day 22) was 106.3 pmol/L. For the same compound, the “Serum estradiol, Mean” value (estradiol; 100 mg/day, Day 28) was 94.5 pmol/L, the “Serum estradiol, Mean” value (estradiol; 300 mg/day, Baseline) was 102.5 pmol/L and the “Serum estradiol, Mean” value (estradiol; 300 mg/day, Day 8) was 104.0 pmol/L. The “Serum estradiol, Mean” value (estradiol; 300 mg/day, Day 15) was 97.8 pmol/L, the “Serum estradiol, Mean” value (estradiol; 300 mg/day, Day 22) was 95.5 pmol/L and the “Serum estradiol, Mean” value (estradiol; 300 mg/day, Day 28) was 89.7 pmol/L. The “adverse events reported more than once” value ([1]; 10, 30, 100 and 300 mg daily for 28 days) was “upper respiratory tract infection, nausea and abdominal pain”, the tolerability ([1]; 10, 30, 100 and 300 mg daily for 28 days, all dose levels) was “well tolerated” and the safety concerns ([1]; any dose (10-300 mg/day)) was “no safety concerns”.
